ChEMBL document CHEMBL1151037, “Synthesis of a chemiluminescent probe useful for the purification of steroid 5-reductase” (Bioorg Med Chem Lett, 1996)

Molecular target: T1, 3-oxo-5-alpha-steroid 4-dehydrogenase 1 (Rattus norvegicus, UniProt P24008)
T1 sequence (P24008 whole entry): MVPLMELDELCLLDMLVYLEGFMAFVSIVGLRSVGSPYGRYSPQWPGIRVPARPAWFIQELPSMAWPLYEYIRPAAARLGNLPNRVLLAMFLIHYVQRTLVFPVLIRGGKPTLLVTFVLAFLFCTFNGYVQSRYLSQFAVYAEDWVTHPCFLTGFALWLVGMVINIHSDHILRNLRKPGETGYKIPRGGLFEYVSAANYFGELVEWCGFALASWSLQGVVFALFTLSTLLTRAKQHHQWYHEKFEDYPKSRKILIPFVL
Assay: Compound was tested for its inhibitory potency against rat Steroid 5-alpha-reductase type 1 expressed in transformed yeast Saccharomyces cerevisiae

IC50 [µM]	SMILES
0.5	CCN(CCCCNC(=O)[C@H]1CCC2C3CCC4NC(=O)C=C[C@]4(C)C3CC[C@@]21C)c1ccc2c(=O)[nH][nH]c(=O)c2c1 (some centres not stated)
40	CC(C)(C)NC(=O)[C@H]1CC[C@H]2[C@@H]3CC[C@H]4NC(=O)C=C[C@]4(C)[C@H]3CC[C@]12C [FINASTERIDE]
